This passage reports Ki and EC50 results from patent US7169932B2 (priority 2001, dated 2007).

The target of assay [1] is T1, HIV-1 protease (Q7S) (Human immunodeficiency virus type 1 group M subtype B, UniProt P04585, Q495S).
T1 construct: made in house
Description: HIV-1 Protease RET Assay. Type of assay: biochemical. Put shortly: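 Ki values came from a RET assay on refolded Q7S protease (2 nM active dimer) cleaving RE(EDANS)SQNYPIVQK(DABCYL)R at 5 μM, read at ex 340/em 490 nm. Reactions ran 12 min at 37 C in 0.1M sodium acetate pH 4.8, 1M NaCl, 5 mM DTT, 10% DMSO; curves were fit with the Morrison tight-binding equation.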

Assay [2] has as its system HIV-1. Description: Cytopathic Effect (CPE) Inhibition Assay (XTT dye reduction). The format is cell-based. Summed up: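 CEM-SS or MT-2 cells infected with HIV-1 RF or NL4–3 (moi 0.025–0.819), 2×10^4 cells/well, incubated six days with half-log compound dilutions. Viability read by XTT formazan at 450 nm; EC50 is the concentration restoring 50% of uninfected-control formazan, CC50 from uninfected treated cells, therapeutic index CC50/EC50.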
On the technique in general: Cytopathic effects are the visible damage that an infection or toxin causes in cultured cells.

The mark [3] stands for this setting: Ave. Ki (nM), RET assay, Q7S enzyme, pH 4.8, 37 C.
Setting [4] is: Human immunodeficiency virus 1, 144 h, read-out: Ave CPE EC50 (mM).
[5] abbreviates: Ki, table of drawn compounds, unit inferred.

Where two headings read alike, the source gives them in different places.

The Ki is a dissociation constant, usually derived from enzyme kinetics or from competition with a known ligand. One may read the EC50 as the concentration at which the effect is half-maximal.

For the compound `Cc1noc(C)c1C(=O)N[C@@H](Cc1ccccc1)[C@H](O)C(=O)N1CSC(C)(C)[C@H]1C(=O)NCc1ccccc1Cl` [Example B23, 3,5-Dimethyl-isoxazole-4-carboxylic acid {1-benzyl-3-[4-(2-chloro-benzylcarbamoyl)-5,5-dimethyl-thiazolidin-3-yl]-2-hydroxy-3-oxo-propyl}-amide], the inhibition constant Ki in assay [1] (setting [3]) turned out to be 0.42 nM. Also, the EC50 in assay [2] (setting [4]) came to 1420 nM.
In assay [1] (setting [3]), `Cc1noc(C)c1C(=O)NC(Cc1ccccc1)C(O)C(=O)N1CSC(C)(C)C1C(=O)NCc1c(F)cccc1F` (centres unmarked) [Example B25, 3,5-Dimethyl-isoxazole-4-carboxylic acid {1-benzyl-3-[4-(2,6-difluoro-benzylcarbamyl)-5,5-dimethyl-thiazolidin-3-yl]-2-hydroxy-3-oxo-propyl}-amide] displayed a Ki of 2.7 nM. Further, the EC50 in assay [2] (setting [4]) amounted to 1790 nM.
Regarding `Cc1ccccc1CNC(=O)[C@H]1N(C(=O)[C@@H](O)[C@H](Cc2ccccc2)NC(=O)c2ccccc2Cl)CSC1(C)C`, the Ki in assay [1] (setting [5]) is 0.2 nM. The same compound had an EC50 in assay [2] (Human immunodeficiency virus 1) of 585 nM.
`Cc1ccsc1CNC(=O)[C@H]1N(C(=O)[C@@H](O)[C@H](Cc2ccccc2)NC(=O)c2cccc(O)c2C)CSC1(C)C` [Example A8]: affinity in assay [1] (setting [3]) was put at a Ki of 0.23 nM. In assay [2] (setting [4]), the EC50 came to 36 nM.
For `Cc1c(O)cccc1C(=O)N[C@@H](Cc1ccccc1)[C@H](O)C(=O)N1CSC(C)(C)[C@H]1C(=O)NCc1ccc(F)cc1C(F)(F)F` [Example A12], in that order: 1.7 nM and 1090 nM.
Compound `Cc1c(O)cccc1C(=O)N[C@@H](Cc1ccccc1)[C@H](O)C(=O)N1CSC(C)(C)[C@H]1C(=O)NCc1ccc(F)c(F)c1F` came in with a Ki in assay [1] (setting [5]) of 0.11 nM. The compound also gave an EC50 in assay [2] (Human immunodeficiency virus 1) of 334 nM.
As for `COCCNC(=O)[C@H]1N(C(=O)[C@@H](O)[C@H](Cc2ccccc2)NC(=O)c2cccc(O)c2C)CSC1(C)C`, the Ki in assay [1] (setting [5]) was determined as 0.24 nM. Besides, in assay [2] (Human immunodeficiency virus 1), the concentration giving a half-maximal response (EC50) was 158 nM.
As for `Cc1ccccc1CNC(=O)[C@H]1N(C(=O)[C@@H](O)[C@H](Cc2ccccc2)NC(=O)N2CCSC2)CSC1(C)C`, the Ki in assay [1] (setting [5]) was found to be 14 nM. Further, a half-maximal response in assay [2] (Human immunodeficiency virus 1) (EC50) required 1510 nM.
Take `Cn1cccc1C(=O)N[C@@H](Cc1ccccc1)[C@H](O)C(=O)N1CSC(C)(C)[C@H]1C(=O)NCc1ccccc1Cl` [Example B22, 3-{2-Hydroxy-3-[(1-methyl-1H-pyrrole-2-carbonyl)-amino]-4-phenyl-butyryl}-5,5-dimethyl-thiazolidine-4-carboxylic acid 2-chloro-benzylamide]: the affinity in assay [1] (setting [3]) corresponds to a Ki of 1.8 nM. The EC50 in assay [2] (setting [4]) turned out to be 1610 nM.
In turn, `Cn1cccc1C(=O)N[C@@H](Cc1ccccc1)[C@H](O)C(=O)N1CSC(C)(C)[C@H]1C(=O)NCc1c(F)cccc1F` [Example B24, 3-{2-Hydroxy-3-[(1-methyl-1H-pyrrole-2-carbonyl)-amino]-4-phenyl-butyryl}-5,5-dimethyl-thiazolidine-4-carboxylic acid 2,6-difluoro-benzylamide] yielded a Ki in assay [1] (setting [3]) of 5.5 nM. Further, the EC50 in assay [2] (setting [4]) is 2320 nM.
In turn, `Cc1cc(C(=O)N[C@@H](Cc2ccccc2)[C@H](O)C(=O)N2CSC(C)(C)[C@H]2C(=O)NCc2ccccc2C)n[nH]1` yielded a Ki in assay [1] (setting [5]) of 19.5 nM. Also, the EC50 in assay [2] (Human immunodeficiency virus 1) worked out at 3000 nM.
In assay [1] (setting [3]), `Cc1ccccc1CNC(=O)[C@H]1N(C(=O)[C@@H](O)[C@H](Cc2ccccc2)NC(=O)c2ccc(F)cc2C)CSC1(C)C` [Example B37, (R)-3-((2S,3S)-3-{[1-(4-Fluoro-2-methyl-phenyl)-methanoyl]-amino}-2-hydroxy-4-phenyl-butanoyl)-5,5-dimethyl-thiazolidine-4-carboxylic acid 2-methyl-benzylamide] displayed a Ki of 0.11 nM. Besides, the EC50 in assay [2] (setting [4]) was 736 nM.
The matching figures for `C/C=C\CNC(=O)[C@H]1N(C(=O)[C@@H](O)[C@H](Cc2ccccc2)NC(=O)c2cccc(O)c2C)CSC1(C)C` [Example A31, (R)-3-((2S,3S)-2-Hydroxy-3-{[1-(3-hydroxy-2-methyl-phenyl)-methanoyl]-amino}-4-phenyl-butanoyl)-5,5-dimethyl-thiazolidine-4-carboxylic acid (Z)-but-2-enylamide]: below 0.1 nM and 41 nM.
